# Assay results: publication PMC3706402, “Identification and Expression of the CCAP Receptor in the Chagas’ Disease Vector, Rhodnius prolixus, and Its Involvement in Cardiac Control” (PLoS ONE, 2013)
# “Also recorded” adds a separate entry of the source. Bridge positions count the residues as written; N and C are the ends. Ends that are not written are not given here.
# Key:
# RhoprCCAPR [1] = test: Functional receptor expression (aequorin bioluminescence, calcium mobilization) assay in CHO-WTA11 cells; format: cell-based, Rhodnius prolixus; settings: for Activation of RhoprCCAPR (in words): CHO-WTA11 cells expressing RhoprCCAPR, bioluminescent response
# Experimental: The coding region of RhoprCCAPR (1,128 bp) (RhoprCCAPR) was amplified from unfed 5th instar CNS cDNA with gene specific primers (Table 1C) using a Q5 High fidelity DNA polymerase (New England Biolabs, Pickering, ON). At the 5′ end before the ATG initiation codon, the Kozak translation initiation sequence ([…]) was introduced since this is required for optimal translation by eukaryotic ribosomes (Table 1C) [26]–[28]. The PCR product was run on a 0.8% agarose gel for 40 mins (160V) and the correct size of band was excised and purified (Promega, Madison, WI, USA). This was then subcloned into the pGEM T easy vector (Promega, Madison, WI) to verify its sequence. The insert with the Kozak sequence was excised using restriction enzyme (NotI) and subcloned into the expression vector, pcDNA™3.1(+) (Invitrogen, Carlsbad, CA) to express in Chinese hamster ovary (CHO-K1) WTA11, mammalian cells (Euroscreen S. A., Belgium; provided by Prof. Dr. M. Parmentier and Dr. M. Detheux; Brussels, Belgium).
# RhoprCCAPR was transiently expressed in CHO-WTA11 cells that stably express promiscuous Gα16 and apoaequorin. This cell line has been used extensively for insect GPCR functional assays. The transfection was performed using X-treme HP DNA transfection reagent (Roche Applied Science, Indianapolis, IN) with the ratio of 3 (transfection reagent) to 1 (RhoprCCAPR/pcDNA™3.1(+) or empty pcDNA™3.1(+) vector) according to the manufacture’s protocol (Roche Applied Science, Indianapolis, IN). Cells were grown in the complete Dulbecco’s Modified Eagle Medium Nutrient Mixture F12-Ham (DMEM/F12, 10% fetal bovine serum, FBA, 100 IU/ml penicillin/streptomycin (Invitrogen, Carlsbad, CA)) in the 5% CO2 37°C incubator. After 48 hours, transfected cells were incubated with 5 µM Coelentarazine for 4 hours (Invitrogen, Carlsbad, CA) at room temperature in the dark. Interaction between ligand and the cloned RhoprCCAPR leads to a bioluminescent response that is mediated by the IP3/Ca^2+ signaling pathway. The luminescence assay was performed on opaque 96-well microplates (Corning, Lowell, MA). 50 µl of cells were introduced into each well of the 96-well plate that contained either controls or different concentration of peptides (RhoprCCAP, RhoprCorazonin, RhoprAKH and GNDNFMRFa) (Table 2) and the changes of luminescence were recorded for 20 sec. Wells only containing DMEM/0.1% BSA medium served as a negative control, while wells containing 50nM ATP served as a positive control. All luminescence values were corrected for background values from wells containing only DMEM/BSA medium and all values were calculated as maximum percentage difference. The response for each ligand concentration in replica wells and from at least three replica plates was averaged for analysis. GraphPad prism 5 (version 5.03) was used to analyze and generate the data.
# RhoprCCAPR [2] = test: Calcium mobilization assay with RhoprCCAPR expressed in CHO-K1 cells; format: cell-based, Rhodnius prolixus; settings: without promiscuous Gα, read-out: EC50 using CHO-K1 cells
# Experimental: To determine the endogenous ligand for the isolated putative RhoprCCAPR in R. prolixus, we used a calcium mobilization assay which expresses the RhoprCCAPR clone in CHO-K1 cells. […] The receptor was not activated by other peptides that were tested, including RhoprAKH, RhoprCorazonin and an extended RhoprFMRFa, GNDNFMRFa (Figure 5A, 5B, Table 2). […] Thus, our control data illustrate that the functional receptor assay system is only activated in cells that are transfected with RhoprCCAPR and not by any endogenous receptors in these CHO cells.
# CCAP receptor = settings: read-out: EC50, A. gambiae CCAP receptor; cited from earlier work
# Excerpt: (§1) The improved sensitivity of this cell line over CHO-K cells is due to presence of the promiscuous Gα proteins.
# CCAPR2 = settings: read-out: EC50, T. castaneum CCAPR2; cited from earlier work
# Excerpt: as §1
# CCAP receptor (CG6111) = settings: read-out: EC50, D. melanogaster CCAP receptor (CG6111); cited from earlier work
# Excerpt: as §1
# CCAPR1 = settings: read-out: EC50, T. castaneum CCAPR1; cited from earlier work
# Excerpt: as §1
# [3] = tested on: heart rate in Manduca sexta; settings: cited from earlier work
# Excerpt: (§2) Crustacean cardioactive peptide (CCAP) is a cyclic nonapeptide that is conserved in arthropods. CCAP was first isolated as a cardioaccelerator from the pericardial organs of the shore crab, Carcinus maenas, [8]. Later, it was biochemically isolated from the nervous system of insects, [10]. The important functions of CCAP in insects have been well documented.
# [4] = tested on: oviduct of Locusta migratoria; settings: cited from earlier work
# Excerpt: as §2
# [5] = tested on: heart rate in Drosophila melanogaster; settings: cited from earlier work
# Excerpt: as §2
# [6] = tested on: dorsal vessel of R. prolixus; test: In vitro heartbeat (dorsal vessel preparation, impedance converter); set-up: species or system Rhodnius prolixus
# Experimental: Adult R. prolixus were anesthetized with CO2 for 10 sec and 1 µl of 2 µg of dsCCAPR was injected into the thorax using a 5 µl Hamilton syringe to knock down RhoprCCAPR transcript levels. As a control, groups of R. prolixus were injected with either 1 µl of dsARG or had no injection. R. prolixus were left for 1 hour at room temperature to recover and then placed into an incubator at 28°C on a 16 h:8 h light/dark cycle.
# In vitro heartbeat was monitored as described in Lee and Lange (2011) with minor modifications. The ventral cuticle, digestive and reproductive systems were dissected and removed under RNase free saline. The dorsal vessel and dorsal diaphragm remained attached to the dorsal cuticle. Then, the dorsal cuticle was placed onto a Sylgard-coated dissecting dish and covered with 100 µL of saline. Electrodes attached to an impedance converter (UFI model 2991, Morro Bay, CA, USA) were placed between the fifth and sixth abdominal segments on either side of the dorsal vessel anterior to the alary. The preparation was stabilized in 100 µL of saline for 10 min at room temperature, and then 50 µL of 10^−9M CCAP was exchanged for 50 µL of saline. Heartbeat frequency was measured from the traces observed on a Linear Flat-bed single channel chart recorder. The preparation was washed with saline for 5 mins post application of CCAP. Heartbeat frequency was determined for 1 min before and after the application of 10^−9M CCAP. The response to 10^−9M CCAP was quantified by measuring the increase in frequency compared to saline, which was then expressed as a percentage of the maximum change in frequency for each preparation. Pools of tissues including dorsal vessel/fat body/trachea were collected and the percentage of knockdown was measured by qPCR as indicated above.
# heart of R. prolixus = settings: cited from earlier work
# [7] = tested on: midgut α-amylase and protease activity; settings: cited from earlier work
# Excerpt: as §2, with “documented. […] The CCAP may act in a paracrine manner, released from CCAP-containing midgut endocrine cells, [44].” for “documented.”
# corpora cardiaca = settings: 33 (so in the source); cited from earlier work
# Excerpt: (§3) Also, these peptides are functionally inter-related. […] [33]. In M. sexta, AKH mobilize lipids from the fat body during flight or locomotion when heartbeat frequency also increases.
# [8] = tested on: heartbeat frequency in some insects; settings: 34 (so in the source); cited from earlier work
# Excerpt: as §3
# hindgut of R. prolixus = tested on: hindgut of R. prolixus; set-up: method as in earlier work; settings: dose-dependent; ref 31 (so in the source); cited from earlier work
# [9] = CHO-WTA11 cells stably expressing Gα16 and apoaequorin, luminescence recorded 20 sec, averaged from at least three replica plates
substance,measurement,setting,value
GNDNFMRF-NH2 [ExtendedFMRFa],Activation of RhoprCCAPR (in words),RhoprCCAPR [1]; listed as GNDNFMRFa,not activated
same,EC50 (M) RhoprCCAPR,RhoprCCAPR [1]; [9],Not active
PFCNAFTGC-NH2 (disulfide 3-9 (inferred)) [RhoprCCAP],EC50,RhoprCCAPR [2],341 ± 8.8 nM
same,EC50,CCAP receptor,1 nM
same,EC50,CCAPR2,22 nM
same,EC50,CCAP receptor (CG6111),0.54 nM
same,EC50,CCAPR1,624 nM
same,"Effect on heart rate, M. sexta",[3],triggers increasing heart rate
same,Effect on oviduct contractions,[4],modulates oviduct contractions
same,"Effect on heart rate, D. melanogaster",[5],triggers increasing heart rate
same,Effect of CCAP on heartbeat after RhoprCCAPR knockdown (in words),"[6]; 10^−9 M CCAP, RhoprCCAPR knocked down by dsCCAPR, in vitro",loss of function; also recorded: unresponsive; also recorded: eliminates the CCAP-induced increase in vitro; also recorded: cardioacceleratory effect is abolished
same,"In vitro heartbeat frequency in the presence of 10^−9 M CCAP, dsARG treated bugs","[6]; dsARG-treated bugs, saline baseline 10.4±2.9, paired t test p = 0.0376, vs dsCCAPR unpaired p = 0.0318, mean ± SEM, n = 5 (Figure 6)",15.6±3.9 beats/min
same,"In vitro heartbeat frequency in the presence of 10^−9 M CCAP, dsCCAPR treated bugs","[6]; dsCCAPR-treated bugs, saline baseline 5.4±3.0, paired t test p = 0.1688, vs dsARG unpaired p = 0.0318, mean ± SEM, n = 5 (Figure 6)",4.6±3.3 beats/min
same,"Effect on heartbeat frequency in the heart, R. prolixus (Discussion)","heart of R. prolixus; dose-dependent, ref 31 (so in the source)",increases heartbeat frequency and contraction in a dose-dependent manner
same,"Effect on heartbeat frequency, R. prolixus","heart of R. prolixus; in vitro, 5th instar","increases heartbeat frequency in vitro; also recorded: increases the frequency of the heartbeat in R. prolixus in a reversible, dose-dependent manner"
same,"Effect on enzyme secretion, P. americana",[7],regulates enzyme secretion
same,Effect on α-amylase and protease activity,[7]; isolated midgut,increases α-amylase and protease activity
same,EC50,RhoprCCAPR [1]; [9],12.2 nM
same,Effect on AKH release,corpora cardiaca,influences AKH release
same,Effect on heartbeat frequency in some insects,[8],increase heartbeat frequency
same,Effect on hindgut contraction,hindgut of R. prolixus,increases heartbeat frequency and contraction in a dose-dependent manner
"pQLTFSTDW-NH2 [RhoprAKH, adipokinetic hormone, pQLTFSTDW-NH2]",Activation of RhoprCCAPR (in words),RhoprCCAPR [1],not activated
same,Activation of RhoprCCAPR (in words),RhoprCCAPR [1]; listed as AKH,neither AKH nor corazonin activate the RhoprCCAPR
same,EC50 (M) RhoprCCAPR,RhoprCCAPR [1]; [9],Not active
same,Effect on heartbeat frequency in some insects,[8],increase heartbeat frequency
pQTFQYSRGWTN-NH2 [Corazonin],Activation of RhoprCCAPR (in words),RhoprCCAPR [1],neither AKH nor corazonin activate the RhoprCCAPR
same,Activation of RhoprCCAPR (in words),RhoprCCAPR [1]; listed as RhoprCorazonin,not activated
same,EC50 (M) RhoprCCAPR,RhoprCCAPR [1]; [9],Not active
same,Effect on heartbeat frequency in some insects,[8],increase heartbeat frequency
